Test results from ChEMBL document CHEMBL1201862, “PubChem BioAssay data set” (2004).
Active and inactive are the calls of the source.

Experiments:
[1] = target: T1, Neuropeptide Y receptor type 1 (Homo sapiens, UniProt P25929); type: functional;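 further: HEK293 cells with a CNG channel challenged with NPY then isoproterenol; potency as antagonist that reverses NPY suppression of cAMP signal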
T1 sequence (P25929 whole entry): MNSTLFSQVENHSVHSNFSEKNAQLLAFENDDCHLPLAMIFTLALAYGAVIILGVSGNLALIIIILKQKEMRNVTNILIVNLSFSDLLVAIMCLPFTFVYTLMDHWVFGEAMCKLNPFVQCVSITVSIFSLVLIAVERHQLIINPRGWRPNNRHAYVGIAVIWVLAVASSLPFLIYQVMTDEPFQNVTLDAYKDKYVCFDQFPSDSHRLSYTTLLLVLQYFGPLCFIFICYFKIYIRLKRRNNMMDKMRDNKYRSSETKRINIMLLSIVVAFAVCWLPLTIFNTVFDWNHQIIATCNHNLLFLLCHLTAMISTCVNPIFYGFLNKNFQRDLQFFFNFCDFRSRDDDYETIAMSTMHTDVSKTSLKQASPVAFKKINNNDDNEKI

[2] = target: T2, Neuropeptide Y receptor type 2 (Homo sapiens, UniProt P49146); type: functional, cell-based;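 further: HEK293 cells expressing the receptor and a CNG channel; stimulus was NPY near EC95 followed by isoproterenol to raise cAMP; antagonist potency measured as restoring cAMP signal that NPY suppresses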
T2 sequence (P49146 whole entry): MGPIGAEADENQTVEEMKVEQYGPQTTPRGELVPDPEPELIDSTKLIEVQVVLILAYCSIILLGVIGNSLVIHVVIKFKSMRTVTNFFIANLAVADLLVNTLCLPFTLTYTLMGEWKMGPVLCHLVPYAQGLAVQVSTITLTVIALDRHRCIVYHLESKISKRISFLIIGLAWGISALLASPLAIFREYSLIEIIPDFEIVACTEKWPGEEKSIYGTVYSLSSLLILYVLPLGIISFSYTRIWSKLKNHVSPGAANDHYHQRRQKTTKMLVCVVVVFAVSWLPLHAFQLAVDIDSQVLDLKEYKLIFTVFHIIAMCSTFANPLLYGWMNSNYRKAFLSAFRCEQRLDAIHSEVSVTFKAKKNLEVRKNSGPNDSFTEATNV

[3] = system: Streptococcus sp. 'group A'; test: Streptococcus pyogenes SK(-)GAS viability under kanamycin – luminescence, BacTiterGlo, confirmation, counter-screen for streptokinase expression inhibitor project, dose response (AID 1900); type: functional, organism-based
Oxytocin receptor = Oxytocin receptor (Homo sapiens, UniProt P30559); test: Counterscreen for vasopressin 1 receptor (V1R) agonists: Fluorescence-based cell-based high throughput dose response assay for agonists of the Oxytocin Receptor (OXTR). [Related pubchem assays: 2435 (Primary screen (OXTR agonists in singlicate)), 434964 (Confirmation screen (V1R agonists in triplicate)), 434969 (Counterscreen (OXTR agonists in …; type: functional
Vasopressin V1a receptor = Vasopressin V1a receptor (Homo sapiens, UniProt P37288); test: Fluorescence-based cell-based high throughput dose response screening assay for agonists of the vasopressin 1 receptor (V1R).; type: functional
Streptococcus = test: GAS UMAA2166 growth inhibition – luminescence, BacTiterGlo, counter-screen for streptokinase expression inhibitor project, dose response (AID 1915); type: functional, organism-based;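 further: potency for reduction of bacterial viability or growth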
[4] = target: T3, Short transient receptor potential channel 4 (Mus musculus, UniProt Q9QUQ5); test: calcium entry via TRPC4 opening agents – cell-based, HEK293 TRPC4/mu-opioid, Fluo-4 calcium, dose response (AID 434937); type: functional
T3 sequence (Q9QUQ5 whole entry): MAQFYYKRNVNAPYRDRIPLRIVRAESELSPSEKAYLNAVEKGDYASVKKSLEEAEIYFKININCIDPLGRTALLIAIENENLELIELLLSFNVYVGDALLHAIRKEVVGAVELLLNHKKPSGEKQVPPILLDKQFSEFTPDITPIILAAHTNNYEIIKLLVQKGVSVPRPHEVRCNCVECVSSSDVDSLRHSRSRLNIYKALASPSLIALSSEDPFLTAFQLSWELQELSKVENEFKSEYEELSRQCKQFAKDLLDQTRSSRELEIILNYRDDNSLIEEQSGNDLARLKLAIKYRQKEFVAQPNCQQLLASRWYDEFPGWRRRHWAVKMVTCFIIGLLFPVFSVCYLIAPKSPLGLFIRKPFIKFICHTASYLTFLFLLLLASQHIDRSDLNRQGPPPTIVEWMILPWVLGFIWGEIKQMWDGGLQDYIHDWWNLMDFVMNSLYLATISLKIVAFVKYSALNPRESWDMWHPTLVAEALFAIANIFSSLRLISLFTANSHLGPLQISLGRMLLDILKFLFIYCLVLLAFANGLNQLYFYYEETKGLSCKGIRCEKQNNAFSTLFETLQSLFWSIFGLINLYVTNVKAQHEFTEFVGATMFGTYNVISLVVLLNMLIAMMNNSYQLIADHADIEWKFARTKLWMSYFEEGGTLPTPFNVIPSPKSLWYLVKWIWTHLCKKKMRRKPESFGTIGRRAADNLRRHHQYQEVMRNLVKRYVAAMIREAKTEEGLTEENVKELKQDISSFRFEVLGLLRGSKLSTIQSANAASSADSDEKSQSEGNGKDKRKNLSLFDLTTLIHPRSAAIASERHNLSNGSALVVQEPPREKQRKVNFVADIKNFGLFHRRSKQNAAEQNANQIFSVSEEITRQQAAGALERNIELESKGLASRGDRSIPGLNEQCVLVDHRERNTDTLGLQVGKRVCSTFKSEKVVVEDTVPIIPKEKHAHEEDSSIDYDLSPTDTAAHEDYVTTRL

[5] = target: Peroxisome proliferator-activated receptor gamma/Nuclear receptor coactivator 2 (Homo sapiens, UniProt P37231); type: functional;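 further: agonist potency for raising coactivator recruitment to the receptor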
[6] = target: Peroxisome proliferator-activated receptor gamma/Nuclear receptor coactivator 1 (Homo sapiens, UniProt P37231); type: functional;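 further: agonist potency as compounds enhance coactivator SRC-1 recruitment to PPARgamma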
[7] = target: Peroxisome proliferator-activated receptor gamma/Nuclear receptor coactivator 3 (Homo sapiens, UniProt P37231); type: functional;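 further: agonist potency for raising coactivator recruitment to the receptor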
Estrogen receptor = Estrogen receptor (Homo sapiens, UniProt P03372);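 further: potency for inhibiting coactivator peptide recruitment to the receptor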
Estrogen receptor beta = Estrogen receptor beta (Homo sapiens, UniProt Q92731);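 further: recombinant ER-beta bound to coactivator SRC1 peptide in presence of estradiol agonist; inhibitors block coactivator peptide binding and lower the FRET signal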

Chain of Peroxisome proliferator-activated receptor gamma/Nuclear receptor coactivator 1 (P37231 whole entry): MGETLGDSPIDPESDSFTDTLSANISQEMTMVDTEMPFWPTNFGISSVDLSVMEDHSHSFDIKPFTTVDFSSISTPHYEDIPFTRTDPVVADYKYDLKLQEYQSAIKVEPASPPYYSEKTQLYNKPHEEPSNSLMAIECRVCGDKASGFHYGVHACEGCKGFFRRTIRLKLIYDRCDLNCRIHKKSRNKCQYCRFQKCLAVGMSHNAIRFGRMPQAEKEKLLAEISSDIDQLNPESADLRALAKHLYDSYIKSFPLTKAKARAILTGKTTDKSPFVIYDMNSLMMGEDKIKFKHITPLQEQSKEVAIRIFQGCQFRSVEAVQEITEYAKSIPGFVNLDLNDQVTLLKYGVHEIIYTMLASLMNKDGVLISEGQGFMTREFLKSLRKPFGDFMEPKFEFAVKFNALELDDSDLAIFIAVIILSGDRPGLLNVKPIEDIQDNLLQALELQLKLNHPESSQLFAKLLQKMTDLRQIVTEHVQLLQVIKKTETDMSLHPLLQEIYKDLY
Chain of Peroxisome proliferator-activated receptor gamma/Nuclear receptor coactivator 1 (Q15788 whole entry, further chain): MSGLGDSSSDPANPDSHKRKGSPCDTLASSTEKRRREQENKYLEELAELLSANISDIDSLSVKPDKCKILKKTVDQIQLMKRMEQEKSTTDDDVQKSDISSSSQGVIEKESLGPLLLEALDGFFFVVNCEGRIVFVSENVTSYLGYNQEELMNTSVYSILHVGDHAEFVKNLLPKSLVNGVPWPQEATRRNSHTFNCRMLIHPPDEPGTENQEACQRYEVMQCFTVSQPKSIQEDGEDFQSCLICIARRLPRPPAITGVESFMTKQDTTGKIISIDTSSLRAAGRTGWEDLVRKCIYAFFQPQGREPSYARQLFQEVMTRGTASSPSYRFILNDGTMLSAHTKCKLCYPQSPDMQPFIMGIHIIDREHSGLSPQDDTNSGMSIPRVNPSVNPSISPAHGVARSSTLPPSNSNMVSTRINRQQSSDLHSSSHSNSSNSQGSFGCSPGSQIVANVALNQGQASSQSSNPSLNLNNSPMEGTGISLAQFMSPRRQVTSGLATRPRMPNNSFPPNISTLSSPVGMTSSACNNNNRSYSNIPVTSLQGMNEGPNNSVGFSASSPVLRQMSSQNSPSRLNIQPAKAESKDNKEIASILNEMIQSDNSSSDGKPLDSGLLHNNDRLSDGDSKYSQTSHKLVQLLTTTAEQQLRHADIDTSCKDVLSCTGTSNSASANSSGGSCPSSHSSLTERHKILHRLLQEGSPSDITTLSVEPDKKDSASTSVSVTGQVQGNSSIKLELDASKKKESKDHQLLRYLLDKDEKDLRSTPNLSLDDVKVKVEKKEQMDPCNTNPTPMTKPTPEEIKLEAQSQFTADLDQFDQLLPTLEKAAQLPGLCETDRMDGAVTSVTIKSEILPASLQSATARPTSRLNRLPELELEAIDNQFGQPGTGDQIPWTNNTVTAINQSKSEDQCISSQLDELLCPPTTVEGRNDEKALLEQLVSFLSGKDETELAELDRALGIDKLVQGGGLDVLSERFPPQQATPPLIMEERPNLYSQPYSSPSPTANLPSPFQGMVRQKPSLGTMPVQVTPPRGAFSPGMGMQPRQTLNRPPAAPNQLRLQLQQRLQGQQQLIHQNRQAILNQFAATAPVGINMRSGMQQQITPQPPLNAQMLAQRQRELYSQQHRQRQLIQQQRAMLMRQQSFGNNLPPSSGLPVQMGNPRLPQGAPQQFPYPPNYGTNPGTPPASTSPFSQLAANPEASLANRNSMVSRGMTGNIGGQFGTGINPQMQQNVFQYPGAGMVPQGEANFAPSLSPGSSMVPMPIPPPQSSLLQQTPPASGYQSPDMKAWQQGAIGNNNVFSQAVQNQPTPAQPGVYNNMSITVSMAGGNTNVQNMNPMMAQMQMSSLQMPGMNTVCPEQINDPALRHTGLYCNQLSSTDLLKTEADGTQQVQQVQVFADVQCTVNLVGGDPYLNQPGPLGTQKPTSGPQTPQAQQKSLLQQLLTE
Chain of Peroxisome proliferator-activated receptor gamma/Nuclear receptor coactivator 3 (P37231 whole entry): as the sequence (P37231 whole entry) above
Chain of Peroxisome proliferator-activated receptor gamma/Nuclear receptor coactivator 3 (Q9Y6Q9 whole entry, further chain): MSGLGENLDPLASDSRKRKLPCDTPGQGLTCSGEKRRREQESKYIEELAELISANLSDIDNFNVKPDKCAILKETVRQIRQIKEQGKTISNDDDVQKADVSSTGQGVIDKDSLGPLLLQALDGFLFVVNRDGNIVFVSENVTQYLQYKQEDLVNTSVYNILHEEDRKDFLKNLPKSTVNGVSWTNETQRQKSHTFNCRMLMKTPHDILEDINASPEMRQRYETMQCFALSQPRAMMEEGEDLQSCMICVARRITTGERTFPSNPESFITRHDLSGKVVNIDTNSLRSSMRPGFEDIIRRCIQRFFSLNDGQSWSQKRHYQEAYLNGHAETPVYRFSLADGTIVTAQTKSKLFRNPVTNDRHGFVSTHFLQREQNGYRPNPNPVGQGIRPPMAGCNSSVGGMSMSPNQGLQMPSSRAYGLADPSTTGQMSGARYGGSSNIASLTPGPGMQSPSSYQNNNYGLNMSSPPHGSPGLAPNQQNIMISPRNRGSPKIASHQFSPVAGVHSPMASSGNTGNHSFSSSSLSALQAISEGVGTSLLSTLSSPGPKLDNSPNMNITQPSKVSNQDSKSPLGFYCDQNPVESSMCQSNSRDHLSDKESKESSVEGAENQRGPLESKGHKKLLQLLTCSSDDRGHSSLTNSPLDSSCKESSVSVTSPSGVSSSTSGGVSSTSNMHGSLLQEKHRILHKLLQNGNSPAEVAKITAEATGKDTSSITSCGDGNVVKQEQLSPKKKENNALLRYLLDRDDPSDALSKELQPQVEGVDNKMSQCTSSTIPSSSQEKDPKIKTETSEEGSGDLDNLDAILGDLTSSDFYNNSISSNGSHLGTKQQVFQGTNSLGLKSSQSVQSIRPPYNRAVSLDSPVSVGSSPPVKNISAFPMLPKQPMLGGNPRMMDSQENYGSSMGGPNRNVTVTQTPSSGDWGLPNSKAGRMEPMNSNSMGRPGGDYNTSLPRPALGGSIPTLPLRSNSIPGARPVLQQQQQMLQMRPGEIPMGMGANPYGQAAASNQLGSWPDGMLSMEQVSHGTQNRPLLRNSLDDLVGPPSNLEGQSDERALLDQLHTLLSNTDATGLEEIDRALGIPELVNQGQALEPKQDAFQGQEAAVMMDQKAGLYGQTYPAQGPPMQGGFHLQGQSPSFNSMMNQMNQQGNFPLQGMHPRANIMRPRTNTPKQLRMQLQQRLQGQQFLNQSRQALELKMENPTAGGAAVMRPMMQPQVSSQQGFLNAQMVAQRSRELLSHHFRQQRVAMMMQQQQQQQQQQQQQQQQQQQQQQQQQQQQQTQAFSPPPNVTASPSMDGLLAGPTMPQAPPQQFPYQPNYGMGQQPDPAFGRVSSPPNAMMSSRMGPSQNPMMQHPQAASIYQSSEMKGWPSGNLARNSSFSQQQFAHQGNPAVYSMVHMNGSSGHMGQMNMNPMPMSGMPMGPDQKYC
Chain of Oxytocin receptor (P30559 whole entry): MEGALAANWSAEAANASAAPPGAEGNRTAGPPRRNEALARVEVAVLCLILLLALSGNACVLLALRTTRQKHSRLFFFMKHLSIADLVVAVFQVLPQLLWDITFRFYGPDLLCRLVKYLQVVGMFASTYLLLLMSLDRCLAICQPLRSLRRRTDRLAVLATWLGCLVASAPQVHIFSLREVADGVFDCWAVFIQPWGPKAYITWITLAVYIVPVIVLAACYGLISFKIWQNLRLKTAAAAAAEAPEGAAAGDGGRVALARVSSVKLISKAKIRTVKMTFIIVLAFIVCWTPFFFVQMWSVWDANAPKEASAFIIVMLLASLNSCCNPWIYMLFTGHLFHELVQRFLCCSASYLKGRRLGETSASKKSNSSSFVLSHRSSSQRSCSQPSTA
Chain of Estrogen receptor (P03372 whole entry): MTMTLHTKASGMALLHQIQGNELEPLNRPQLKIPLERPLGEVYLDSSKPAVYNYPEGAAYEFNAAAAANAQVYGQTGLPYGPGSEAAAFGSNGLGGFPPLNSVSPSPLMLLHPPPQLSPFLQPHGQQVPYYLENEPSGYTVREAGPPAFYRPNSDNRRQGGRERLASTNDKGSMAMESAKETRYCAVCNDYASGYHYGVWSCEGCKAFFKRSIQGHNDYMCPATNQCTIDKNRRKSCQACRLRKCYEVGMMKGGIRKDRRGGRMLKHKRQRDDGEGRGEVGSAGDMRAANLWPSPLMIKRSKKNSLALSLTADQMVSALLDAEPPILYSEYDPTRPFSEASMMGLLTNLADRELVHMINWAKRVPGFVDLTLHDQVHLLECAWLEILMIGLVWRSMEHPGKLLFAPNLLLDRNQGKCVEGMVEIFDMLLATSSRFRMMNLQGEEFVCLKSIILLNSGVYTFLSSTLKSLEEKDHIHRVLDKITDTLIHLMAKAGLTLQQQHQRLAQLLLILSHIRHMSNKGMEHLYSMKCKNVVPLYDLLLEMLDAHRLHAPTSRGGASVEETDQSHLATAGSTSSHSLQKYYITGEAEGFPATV

Row | SMILES | IC50 [1] | IC50 [2] | EC50 [5] | EC50 [6] | EC50 [7] | other results
1 | CCN(CC)CC(O)COc1ccc2c(c1)c(C(C)=O)c(C)n2-c1ccccc1 (configuration not stated) | 4.37 µM (active) | 6.95 µM (active) |  |  |  | 
2 | O=c1c2cc(Br)ccc2nc(-c2cccc(Cl)c2)n1O |  |  |  |  |  | EC50 [3]: 1.13 µM (active); EC50 (Oxytocin receptor): > 9.97 µM (active); EC50 (Vasopressin V1a receptor): 6.68 µM (active); EC50 (Streptococcus): 2.86 µM (active); EC50 [4]: 9.44 µM (active)
3 | O=C(c1cc(-c2ccco2)on1)N1CCc2ccccc2C1 |  |  |  |  |  | IC50 (Estrogen receptor): 32.5 µM (not active); IC50 (Estrogen receptor beta): > 50 µM (not active)
4 | CC(C)c1ccc(-c2nnn(Cc3nc4ccccc4s3)n2)cc1 | 5.68 µM (active) | 4.61 µM (active) |  |  |  | 

The next lines start with results.

Row | IC50 [1] | IC50 [2] | EC50 [5] | EC50 [6] | EC50 [7] | SMILES | other results
5 |  |  | > 79.4 µM (not active) | > 79.4 µM (not active) | > 79.4 µM (not active) | COc1ccc(CCN(Cc2nc(O)c3ccccc3n2)C(=O)c2ccco2)cc1OC | 
6 |  |  | 14.2 µM (not active) | 18.8 µM (not active) | 22.2 µM (not active) | COc1ccc(-c2cc(-c3cccs3)c(C#N)c(SCC(=O)NCc3ccccc3)n2)cc1 | 
